According to patent publication US5360803A, “Composition and method for treating cancer” (Dan Farber Cancer Institute, priority 1992, dated 1994):
Like-named read-outs stand apart in the source and are kept apart here. Values belong to the compound of their own block, whether it stands above or below them.

Key:
[1] = test system: human melanoma LOX; assay: survival of nude mice implanted with human melanoma LOX; assay type: in vivo, male athymic Swiss nu/nu mouse (human tumor); conditions: Mus musculus, ip, 24 h, read-out: T/C
Protocol: LOX, a human melanoma cell line, grown subcutaneously in nude mice was excised, trypsinized to yield a single cell suspension using a metal grid with a […] mesh. […] Five million viable trypan blue negative cells made up in 0.1 ml of Dulbecco modified Eagle medium (DMFE) were injected into the peritoneal cavity of a male athymic Swiss nu/nu mouse. The control group and each treatment group consisted of 5 to 10 mice. Treatment was commenced the following day by intraperitoneal injection.
Ten control mice received 0.25 ml of 2% dextrose on these days the treated groups were injected with the compounds of this invention. […] T/C is the ratio, expressed as a percentage of the mean survival age of the treated group to the mean survival age of the untreated control group.

[2] = test system: CV-1 cells; assay: selective killing assay, colony number reduced to 50% of control, normal monkey kidney epithelial cell line CV-1; assay type: cell-based; conditions: 24 hours treatment; for IC50: Primates
From the text: The control received culture media only.

[3] = test system: CX-1 cells; assay: selective killing assay, colony number reduced to 50% of control, human colon carcinoma cell line CX-1; assay type: cell-based; conditions: for Selectivity (ratio of IC50 for CV-1 and IC50 for CX-1): CV-1/CX-1; for IC50: Homo sapiens, CX-1, Table III; for IC50 / CX-1 (IC50): human colon carcinoma, 24 hours treatment, colony count after 7 to 10 days; for CX-1 (IC50): Table III;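 on all read-outs here: colonies stained with crystal violet and counted, control cells given medium alone, exposure at 37 °C, normal monkey kidney epithelial CV-1 cells as the non-cancer comparator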
Protocol: (§1) Human colon carcinoma cell line CX-1 or normal monkey kidney epithelial cell line CV-1 was chosen as representatives of cancer cells and normal cells, respectively. […] CX-1 cells (2,000 cells/well) and CV-1 cells (1,000 cells/well) were plated in 24-well plastic culture plates. […] The control received culture media only. Cells were treated with compounds of General Formulas (I) to (V) at 37° C. for 24 hours. After rinsing with fresh culture medium three times, the cells were further incubated at 37° C. for 7 to 10 days. Cell colonies were fixed and stained with 2% crystal violet in 70% ethanol for 10 minutes and rinsed in water. […] The selectivity is defined as the ratio of IC50 for CV-1 and IC50 for CX-1.

[4] = test system: EJ cells; assay: colony assay of Example 1 with human bladder carcinoma EJ cell line; assay type: cell-based; conditions: for Selectivity: CV-1/EJ; for IC50: Homo sapiens, EJ, 24 h;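 on all read-outs here: colony formation assay with 24 h compound exposure at 37 °C, then 7–10 days drug-free regrowth, colonies stained with crystal violet, controls given medium alone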
[5] = test system: LOX cells; assay: colony assay of Example 1 with human melanoma LOX cell line; assay type: cell-based; conditions: for Selectivity: CV-1/LOX; for IC50: Homo sapiens, LOX, 24 h;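 on all read-outs here: colony formation assay with 24 h exposure at 37 °C, then 7 to 10 days of regrowth, crystal violet staining of colonies, control wells given medium alone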
Protocol: as §1

[6] = test system: CRL 1420 cells; assay: colony assay of Example 1 with human pancreatic carcinoma CRL 1420 cell line; assay type: cell-based; conditions: for Selectivity: CV-1/CRL-1420;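 on all read-outs here: colony formation assay, cells exposed for 24 h then regrown 7 to 10 days without compound, colonies stained with crystal violet, control given medium alone, normal reference CV-1 monkey kidney epithelial cells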
[7] = CV-1, Table III, normal monkey kidney epithelial cells, colony count after 7 to 10 days
[8] = 5 mg/kg i.p. on day 1, 4, 8, 11
[9] = Table IV, human bladder carcinoma, 24 hours treatment
[10] = Table V, human melanoma, 24 hours treatment
[11] = Table III, normal monkey kidney epithelial cells, colony count after 7 to 10 days

SMILES: C=CCn1c(=Cc2oc3ccccc3[n+]2CC)sc(=C2Sc3ccccc3N2C)c1=O [Compound 3]
response vs control in vivo at 5 mg/kg ([1]; 5 mg/kg i.p. on day 1, 4, 8, 11, 14, 16): 218%
IC50 [2, 7]: 6 µg/mL
Selectivity (ratio of IC50 for CV-1 and IC50 for CX-1) [3]: 200
IC50 [3]: 0.03 µg/mL

IC50 [4, 9]: 0.05 µg/mL
IC50 [5, 10]: < 0.1 µg/mL
SMILES: CCn1c(=Cc2oc3ccccc3[n+]2C)oc(=C2Sc3ccccc3N2C)c1=O [Compound 11]
response vs control in vivo at 5 mg/kg [1, 8]: 132%
IC50 ([2]; CV-1, 24 h, Table IV): > 20 µg/mL
IC50 ([2]; CV-1, 24 h, Table V): > 30 µg/mL
IC50 [2, 7]: > 20 µg/mL
Selectivity (ratio of IC50 for CV-1 and IC50 for CX-1) [3]: > 667
IC50 [3]: 0.03 µg/mL
Selectivity [4]: > 400
Selectivity [5]: > 300

CRL-1420(IC50) ([6]; Table VII, human pancreatic carcinoma, 24 hours treatment): 0.09 µg/mL
EJ (IC50) [4, 9]: 0.05 µg/mL
LOX(IC50) [5, 10]: < 0.1 µg/mL
SMILES: CCn1c(=Cc2oc3ccccc3[n+]2C)sc(=C2Sc3ccccc3N2C)c1=O [Compound 12]
Selectivity [6]: 222
CV-1 (IC50) [2, 11]: > 20 µg/mL
CV-1 (IC50) ([2]; Table IV): > 20 µg/mL
CV-1 (IC50) ([2]; Table V): > 30 µg/mL
CV-1 (IC50) ([2]; Table VII): 20 µg/mL
Selectivity (ratio of IC50 for CV-1 and IC50 for CX-1) [3]: > 667
CX-1 (IC50) [3]: 0.03 µg/mL
Selectivity [4]: > 400
Selectivity [5]: > 300

IC50 [4, 9]: 0.2 µg/mL
IC50 [5, 10]: 0.1 µg/mL
SMILES: CCn1c(=Cc2oc3cc4ccccc4cc3[n+]2CC)sc(=C2Sc3ccccc3N2C)c1=O [Compound 22]
response vs control in vivo at 5 mg/kg [1, 8]: 179%
IC50 ([2]; CV-1, 24 h, Table IV): 20 µg/mL
IC50 ([2]; CV-1, 24 h, Table V): 10 µg/mL
IC50 [2, 7]: 10 µg/mL
Selectivity (ratio of IC50 for CV-1 and IC50 for CX-1) [3]: 1000
IC50 [3]: 0.01 µg/mL
Selectivity [4]: 100
Selectivity [5]: 100

SMILES: CCn1c(=Cc2sc3ccc4ccccc4c3[n+]2CC)sc(=C2Sc3ccccc3N2C)c1=O [Compound 30]
response vs control in vivo at 2.5 mg/kg ([1]; 2.5 mg/kg i.p. on day 1, 4, 6, 8): 171%
IC50 [2, 7]: 2 µg/mL
IC50 [3]: 0.01 µg/mL

SMILES: CCn1c(=Cc2sc3ccccc3[n+]2CC)sc(=C2Sc3ccc(C)cc3N2C)c1=O [Compound 50]
response vs control in vivo at 5 mg/kg ([1]; 5 mg/kg i.p. on day 1, 2, 3, 6, 9, 10, 13): 163%
IC50 [2, 7]: 8 µg/mL
Selectivity (ratio of IC50 for CV-1 and IC50 for CX-1) [3]: 200
IC50 [3]: 0.04 µg/mL

SMILES: CCn1c(=Cc2sc3c4ccccc4ccc3[n+]2CC)sc(=C2Sc3ccc(OC)cc3N2C)c1=O [Compound 53]
response vs control in vivo at 10 mg/kg ([1]; 10 mg/kg i.p. on day 1, 2, 3, 5, 8, 10, 13): 150%
IC50 [2, 7]: 10 µg/mL
Selectivity (ratio of IC50 for CV-1 and IC50 for CX-1) [3]: 250
IC50 [3]: 0.04 µg/mL

SMILES: CCn1c(=Cc2oc3ccc4ccccc4c3[n+]2CC)sc(=C2Oc3ccc4ccccc4c3N2C)c1=O [Compound 87]
response vs control in vivo at 10 mg/kg ([1]; 10 mg/kg i.p. on day 1, 3, 6, 9, 10): 150%
IC50 [2, 7]: 20 µg/mL
Selectivity (ratio of IC50 for CV-1 and IC50 for CX-1) [3]: 400
IC50 [3]: 0.05 µg/mL

SMILES: CCn1c(=Cc2cc[n+](CC)c3ccccc23)sc(=C2Sc3ccc4ccccc4c3N2C)c1=O [Compound 90]
response vs control in vivo at 5 mg/kg ([1]; 5 mg/kg i.p. on day 1, 8, 13): 163%
IC50 [2, 7]: 8 µg/mL
Selectivity (ratio of IC50 for CV-1 and IC50 for CX-1) [3]: 200
IC50 [3]: 0.04 µg/mL

SMILES: CCn1c(=Cc2sc3c4ccccc4ccc3[n+]2CC)sc(=C2Sc3ccc4ccccc4c3N2C)c1=O [Compound 92]
response vs control in vivo at 2.5 mg/kg ([1]; 2.5 mg/kg i.p. on day 1, 2, 3, 4, 6, 7, 8, 10, 11): 186%
CV-1 (IC50) [2, 11]: 20 µg/mL
Selectivity (ratio of IC50 for CV-1 and IC50 for CX-1) [3]: 500
CX-1 (IC50) [3]: 0.04 µg/mL

SMILES: CCn1c(=Cc2sc3ccc(Cl)cc3[n+]2CC)sc(=C2Sc3ccc4ccccc4c3N2C)c1=O [Compound 94]
response vs control in vivo at 10 mg/kg ([1]; 10 mg/kg i.p. on day 1, 3, 6, 8, 10, 13, 15): 161%
IC50 [2, 7]: 20 µg/mL
Selectivity (ratio of IC50 for CV-1 and IC50 for CX-1) [3]: 400
IC50 [3]: 0.05 µg/mL

SMILES: CCn1c(=CC2=[N+](CC)CCS2)sc(=C2SC3=C(CCCC3)N2C)c1=O [Compound 211]
response vs control in vivo at 5 mg/kg ([1]; 5 mg/kg i.p. on day 1, 4, 8, 10): 194%

IC50 ([6]; Homo sapiens, 24 h, Table VII, human pancreatic carcinoma, 24 hours treatment): 0.03 µg/mL
IC50 [4, 9]: 0.03 µg/mL
IC50 [5, 10]: 0.03 µg/mL
SMILES: CCn1c(=Cc2sc3c([n+]2CC)-c2ccccc2CC3)sc(=C2Oc3ccc(Cl)cc3N2C)c1=O [Compound 213]
Selectivity [6]: 200
IC50 ([2]; CV-1, 24 h, Table IV): 6 µg/mL
IC50 ([2]; CV-1, 24 h, Table V): 6 µg/mL
IC50 ([2]; CV-1, 24 h, Table VII): 6 µg/mL
Selectivity [4]: 200
Selectivity [5]: 200
